From patent publication US7759101B2, “Ginsenoside glycosidases hydrolyzing ginsenoside sugar moieties and uses thereof” (priority 2000, dated 2010)

Assays:
[1] = tested on: Cellulose β-glucosidase of Clostridium and Bacillus (EC 3.2.1.21); test: Comparison: hydrolysis of ginsenosides with cellulose β-glucosidase of Clostridium and Bacillus; type: biochemical, Clostridium thermocopiriae and Bacillus sp. AX; settings: substrate 0.5%, pH 5.0, 30° C., 18 hours
From the text: To observe the differences between the ginsenoside glycosidases of the invention and known exo-cellulases, the ginsenoside glycosidases of the invention were compared with cellulose β-glucosidase (E.C. 3.2.1.21) in two reactions with 0.5% ginsenosides Rb1 or Rd as substrate.
Cellulose β-glucosidases (EC 3.2.1.21) from Clostridium thermocopiriae and Bacillus sp. AX cannot hydrolyze any glycosides of ginsenosides. The cellulose β-glucosidase from almond slightly hydrolyzes the C-20 glycoside of Rb1, Rb2 and Rc to give ginsenoside Rd, but it cannot hydrolyze the glucoside at C-3. Ginsenoside glycosidase II is similar to cellulose β-glucosidase from almond, but it only slightly hydrolyzes Rd. The properties of ginsenoside glycosidase III are totally different from those of cellulose β-glucosidases.

[2] = tested on: ginsenoside glycosidases from A. oryzae; test: Hydrolysis of ginsenosides with crude ginsenoside glycosidases from A. oryzae, TLC; type: biochemical, Aspergillus oryzae; settings: pH 5.0, 30° C., 18 hours
Procedure: (§1) Aspergillus oryzae FFCCDL-39 g (available from Food Fermentation Culture Collection of Dalian Institute of Light Industry) was cultured with stirring in a medium containing 1% ginseng extracts and 3% wheat bran extracts at 30° C. for 64 hours. Cells were removed by centrifugation, after which (NH4)2SO4 powder was added to 2000 ml of the cell-free supernatant with stirring to 65% saturation. The solution was stored overnight at 4° C. and precipitated proteins were collected by centrifugation, resuspended in 80 ml of distilled water and dialyzed against 0.01M acetate buffer pH 5. Insolubles were removed by centrifugation, and the solution was adjusted to 200 ml with 0.01 M acetate buffer pH 5. The crude enzyme solution may be used to hydrolyze ginsenosides or to purify the enzymes.
Each 100 mg of ginsenosides Rb1, Rb2, Rc Re and Rd and each 10 mg of ginsenoside Rg3 and Rg2 were dissolved in separate tubes containing 10 ml of 0.01M acetate buffer pH 5. 10 ml of the crude enzyme solution obtained as above was added to each tube and allowed to react at 30° C. for 18 hours. Then 10 ml of n-butanol was added to stop the reactions. The products were measured by thin layer chromatography (TLC) (Silica gel 60-F254, Merck; chloroform:methanol:water 70:30:5). […]

[3] = tested on: ginsenoside glycosidases from A. niger; test: Hydrolysis of ginsenosides with crude ginsenoside glycosidases from A. niger, products measured by TLC; type: biochemical, Aspergillus niger; settings: Rb1 0.5%
Procedure: as §1, with “niger FFCCDL-48” for “oryzae FFCCDL-39”, “g” for “g (available from Food Fermentation Culture Collection of Dalian Institute of Light Industry)”, “cultured” for “cultured with stirring”, “54” for “64”
100 mg each of ginsenosides Rb1, Rb2, Rc and Rd and 10 mg of ginsenoside Rg3 were dissolved in separate tubes containing 10 ml of 0.01M acetate buffer pH 5. 10 ml of the crude enzyme solution obtained in 1.1 was added to each tube and allowed to react at 30° C. for 18 hours. Then 10 ml of n-butanol was added to stop the reactions. The products were measured by thin layer chromatography (TLC) (Silica gel 60-F254, Merck; chloroform:methanol:water 70:30:5).
Experiments were carried out to explore the effects of temperature, pH, metal ions and reaction time on the enzyme reaction, in order to further characterize the enzymes.
100 mg of ginsenoside Rb1 was used in a reaction under the conditions as described in 1.2 and the effect of temperature was shown in Table 2.

Structure (SMILES): CC(C)=CCC[C@](C)(O[C@@H]1O[C@H](CO[C@@H]2O[C@H](CO)[C@@H](O)[C@H](O)[C@H]2O)[C@@H](O)[C@H](O)[C@H]1O)[C@H]1CC[C@]2(C)[C@@H]1[C@H](O)C[C@@H]1[C@@]3(C)CC[C@H](O[C@@H]4O[C@H](CO)[C@@H](O)[C@H](O)[C@H]4O[C@@H]4O[C@H](CO)[C@@H](O)[C@H](O)[C@H]4O)C(C)(C)[C@@H]3CC[C@]12C [Rb1, ginsenoside Rb1]
- Percentage of Rb1 in the reaction product [1]: 100%
- Percentage of C—K in the reaction product [2]: 45%
- Percentage of F2 in the reaction product [2]: 38%
- Percentage of Rd in the reaction product [2]: 20%
- Percentage of aglycone in the reaction product [2]: 2%
- Percentage of C—K in the reaction product ([3]; 20° C., pH 5.0, 18 hours): 10%
- Percentage of F2 in the reaction product ([3]; 20° C., pH 5.0, 18 hours): 15%
- Percentage of Rb1 in the reaction product ([3]; 20° C., pH 5.0, 18 hours): 25%
- Percentage of Rd in the reaction product ([3]; 20° C., pH 5.0, 18 hours): 50%
- Percentage of C—K in the reaction product ([3]; 30° C., pH 5.0, 18 hours): 16%
- Percentage of F2 in the reaction product ([3]; 30° C., pH 5.0, 18 hours): 63%
- Percentage of Rb1 in the reaction product ([3]; 30° C., pH 5.0, 18 hours): 1%
- Percentage of Rd in the reaction product ([3]; 30° C., pH 5.0, 18 hours): 10%
- Percentage of Rh2 in the reaction product ([3]; 30° C., pH 5.0, 18 hours): 5%
- Percentage of aglycone in the reaction product ([3]; 30° C., pH 5.0, 18 hours): 5%
- Percentage of C—K in the reaction product ([3]; 40° C., pH 5.0, 18 hours): 34%
- Percentage of F2 in the reaction product ([3]; 40° C., pH 5.0, 18 hours): 50%
- Percentage of Rd in the reaction product ([3]; 40° C., pH 5.0, 18 hours): 5%
- Percentage of Rh2 in the reaction product ([3]; 40° C., pH 5.0, 18 hours): 6%
- Percentage of aglycone in the reaction product ([3]; 40° C., pH 5.0, 18 hours): 5%
- Percentage of C—K in the reaction product ([3]; 50° C., pH 5.0, 18 hours): 42%
- Percentage of F2 in the reaction product ([3]; 50° C., pH 5.0, 18 hours): 40%
- Percentage of Rd in the reaction product ([3]; 50° C., pH 5.0, 18 hours): 5%
- Percentage of Rh2 in the reaction product ([3]; 50° C., pH 5.0, 18 hours): 4%
- Percentage of aglycone in the reaction product ([3]; 50° C., pH 5.0, 18 hours): 4%
- Percentage of C—K in the reaction product ([3]; 60° C., pH 5.0, 18 hours): 6%
- Percentage of F2 in the reaction product ([3]; 60° C., pH 5.0, 18 hours): 10%
- Percentage of Rb1 in the reaction product ([3]; 60° C., pH 5.0, 18 hours): 30%
- Percentage of Rd in the reaction product ([3]; 60° C., pH 5.0, 18 hours): 50%
- Percentage of Rh2 in the reaction product ([3]; 60° C., pH 5.0, 18 hours): 2%
- Percentage of aglycone in the reaction product ([3]; 60° C., pH 5.0, 18 hours): 2%
- Percentage of Rb1 in the reaction product ([3]; 70° C., pH 5.0, 18 hours): 82%
- Percentage of Rd in the reaction product ([3]; 70° C., pH 5.0, 18 hours): 18%
- Percentage of C—K in the reaction product ([3]; Ca^++ 50 mM, pH 5.0, 30°C.): 20%
- Percentage of F2 in the reaction product ([3]; Ca^++ 50 mM, pH 5.0, 30°C.): 65%
- Percentage of Rd in the reaction product ([3]; Ca^++ 50 mM, pH 5.0, 30°C.): 4%
- Percentage of Rh2 in the reaction product ([3]; Ca^++ 50 mM, pH 5.0, 30°C.): 7%
- Percentage of aglycone in the reaction product ([3]; Ca^++ 50 mM, pH 5.0, 30°C.): 4%
- Percentage of C—K in the reaction product ([3]; Ca^++ 100 mM, pH 5.0, 30°C.): 21%
- Percentage of F2 in the reaction product ([3]; Ca^++ 100 mM, pH 5.0, 30°C.): 67%
- Percentage of Rh2 in the reaction product ([3]; Ca^++ 100 mM, pH 5.0, 30°C.): 7%
- Percentage of aglycone in the reaction product ([3]; Ca^++ 100 mM, pH 5.0, 30°C.): 5%
- Percentage of C—K in the reaction product ([3]; Cu^++ 100 mM, pH 5.0, 30°C.): 10%
- Percentage of F2 in the reaction product ([3]; Cu^++ 100 mM, pH 5.0, 30°C.): 30%
- Percentage of Rb1 in the reaction product ([3]; Cu^++ 100 mM, pH 5.0, 30°C.): 30%
- Percentage of Rd in the reaction product ([3]; Cu^++ 100 mM, pH 5.0, 30°C.): 30%
- Percentage of C—K in the reaction product ([3]; Mg^++ 50 mM, pH 5.0, 30°C.): 17%
- Percentage of F2 in the reaction product ([3]; Mg^++ 50 mM, pH 5.0, 30°C.): 65%
- Percentage of Rd in the reaction product ([3]; Mg^++ 50 mM, pH 5.0, 30°C.): 6%
- Percentage of Rh2 in the reaction product ([3]; Mg^++ 50 mM, pH 5.0, 30°C.): 7%
- Percentage of aglycone in the reaction product ([3]; Mg^++ 50 mM, pH 5.0, 30°C.): 5%
- Percentage of C—K in the reaction product ([3]; Mg^++ 100 mM, pH 5.0, 30°C.): 21%
- Percentage of F2 in the reaction product ([3]; Mg^++ 100 mM, pH 5.0, 30°C.): 67%
- Percentage of Rh2 in the reaction product ([3]; Mg^++ 100 mM, pH 5.0, 30°C.): 8%
- Percentage of aglycone in the reaction product ([3]; Mg^++ 100 mM, pH 5.0, 30°C.): 4%
- Percentage of C—K in the reaction product ([3]; No ion, pH 5.0, 30°C.): 16%
- Percentage of F2 in the reaction product ([3]; No ion, pH 5.0, 30°C.): 63%
- Percentage of Rd in the reaction product ([3]; No ion, pH 5.0, 30°C.): 10%
- Percentage of Rh2 in the reaction product ([3]; No ion, pH 5.0, 30°C.): 5%
- Percentage of aglycone in the reaction product ([3]; No ion, pH 5.0, 30°C.): 2%
- Percentage of C—K in the reaction product ([3]; Pb^++ 100 mM, pH 5.0, 30°C.): 1%
- Percentage of F2 in the reaction product ([3]; Pb^++ 100 mM, pH 5.0, 30°C.): 9%
- Percentage of Rb1 in the reaction product ([3]; Pb^++ 100 mM, pH 5.0, 30°C.): 70%
- Percentage of Rd in the reaction product ([3]; Pb^++ 100 mM, pH 5.0, 30°C.): 20%
- Percentage of C—K in the reaction product ([3]; pH 3.0, 30° C., 18 hours): 40%
- Percentage of F2 in the reaction product ([3]; pH 3.0, 30° C., 18 hours): 30%
- Percentage of Rb1 in the reaction product ([3]; pH 3.0, 30° C., 18 hours): 2%
- Percentage of Rd in the reaction product ([3]; pH 3.0, 30° C., 18 hours): 20%
- Percentage of Rh2 in the reaction product ([3]; pH 3.0, 30° C., 18 hours): 8%
- Percentage of aglycone in the reaction product ([3]; pH 3.0, 30° C., 18 hours): 10%
